From patent US11519834B2, “In vitro intestinal drug disposition device” (Enphasys AB, priority 2017, dated 2022)
Like-named read-outs stand apart in the source and are kept apart here.

Key:
Caco-2 cells [1] = assay: Permeation across Caco-2 monolayers in 12-well Transwell plate; format: in vitro ADME, human; details: Caco-2 monolayer, 1.12 cm^2, 10 μM lucifer yellow
Experimental: (§1) The buffer was spiked with 10 μM lucifer yellow, which was used as a paracellular marker to check monolayer integrity. HBSS containing 4% bovine albumin serum was used in the receiver compartment to ensure sink conditions.
Caco-2 cells were grown on inserts in 12-well Transwell plates (surface area 1.12 cm^2). Transwell plates are typically used for in vitro absorption studies. The experiment was performed at 37° C. at 500 rpm with 400 μl of buffer at the donor and 1.2 ml of buffer at the receiver side.

Caco-2 cells [2] = system: Caco-2 cells
Experimental: as §1
Caco-2 cells were grown on Transwell inserts (diameter […]) and mounted in the device resulting in a surface area of 28.27 cm^2. The receiver compartment contained 180 ml and the donor 60 ml. A magnetic stirrer was used to mix the buffer in the receiver compartment and a stirrer propeller to mix the buffer in the donor compartment.

Caco-2 cells [3] = assay: Permeation across Caco-2 monolayers in μFlux; format: in vitro ADME, human; details: Caco-2 monolayer, 0.78 cm^2, 10 μM lucifer yellow
Experimental: HBSS containing 4% bovine albumin serum was used in the receiver compartment to ensure sink conditions. […] Donor and receiver compartments were kept at 37° C. and typically contained 15 ml of buffer. Caco-2 cells were grown in Transwell plates and placed between the compartments resulting in a surface of 0.78 cm^2. Magnetic stirring was used for mixing in both the donor and receiver compartment. The μDISS profiler allowed in situ concentration monitoring with fiber optic probes.

[4] = compared with micronized (ball-milled) danazol, FIG. 7

In the case of lucifer yellow, the “Lucifer yellow Papp” value (Caco-2 cells [1]) is reported as 1 ×10⁻⁶ cm/s, the “Lucifer yellow Papp” value (Caco-2 cells [2]) is reported as 2.19 ×10⁻⁶ cm/s and the “Lucifer yellow Papp” value (Caco-2 cells [3]) is reported as 39.37 ×10⁻⁶ cm/s.

With `C#C[C@]1(O)CC[C@H]2[C@@H]3CCC4=Cc5oncc5C[C@]4(C)[C@H]3CC[C@@]21C` [Unprocessed crystalline danazol, danazol] the absorption [4] was “much lower absorption”.
